Data: patent US20250122155A1, “NOVEL INDOLE DERIVATIVE, PHARMACEUTICAL COMPOSITION COMPRISING SAME, AND USE THEREOF” (MITOIMMUNE THERAPEUTICS INC., priority 2021, published 2025)
Read-outs that look alike come from different tables or passages of the source.

Key:
H9C2 cells [1] = assay: Protective effect on heart cells against t-BHP (LDH release); assay type: cell-based; conditions: H9C2, t-BHP 400 μM, 2 hours, read-out: EC50 (μM), Cell Protection Effect against t-BHP in Heart Cells
Experimental: In order to identify the protective effect with regard to heart cells, H9C2 cells were divided into 96-well plates by 1.5×10^4, and cultured for 24 hours. The respective wells were treated with compounds of the examples 3× serial diluted to final concentrations of 30, 10, 3, 1, 0.3, 0.1, 0.03 and 0.01 μM, then incubated for 15 to 20 minutes. After treating with t-BHP with a final concentration of 400 μM, incubation was performed for 2 hours. To confirm the protective effect of each compound, a Cytotoxicity LDH assay kit [Dojindo; CK12] was used to measure the degree of extracellular secretion of LDH. After 2-hour treatment of the cells with t-BHP was completed, 100 μL each of the supernatant in which the cells were placed was collected and moved to a new 96-well plate. 100 μL/well of the assay buffer included in the kit (same amount as the sample) was added, followed by wrapping with foil and reacting for 30 minutes at room temperature. Observing the change of color in the sample, 50 μL/well of stop solution was added, then an iD3 spectrometer was used to measure absorbance at 490 nm and calculate the EC50 values. The EC50 of the compounds of the examples is preferably no more than 1.0 μM, and more preferably no more than 0.3 μM.

[2] = Plasma and brain drug concentration after oral administration (HPLC-MS/MS); assay type: in vivo
Experimental: […] parameters can be represented as maximum concentration in plasma (Cmax), time taken until maximum concentration in plasma (Tmax), area under the plasma concentration-time curve (AUClast and AUCinf), and half-life (t1/2), and the like.
The compound of Example 2 was orally administered to ICR mice at a dose of 10 mg/kg, and drug concentration in mouse plasma was measured using HPLC-MS/MS spectroscopy at 0.5, 1, 2, 4, 8 and 24 hours. The mouse brains were removed at 2 or 24 hours, and drug concentration in the brain was measured using HPLC-MS/MS spectroscopy. The area under the plasma concentration v. time curve (AUCinf) was measured to be […], and at 2 hours after administration drug concentration in plasma was 398 ng/mL and brain drug concentration was measured at 683 ng/mL. […] Further, at 24 hours after administration, for Example 2, drug concentration in plasma was measured to be 5.6 ng/mL and drug concentration in the brain was measured at 11.4 ng/mL. With the brain-plasma drug concentration ratio at 2.04, drug exposure in the brain was still high.
The Comparative Example compound was orally administered to ICR mice at a dose of 10 mg/kg, and drug concentration in mouse plasma was measured using HPLC-MS/MS spectroscopy at 0.5, 1, 2, 4, 8 and 24 hours. The mouse brains were removed at 2 or 24 hours, and drug concentration in the brain was measured using HPLC-MS/MS spectroscopy.

H9C2 cells [3] = assay: Maintenance of intracellular calcium level in heart cells treated with t-BHP (FLIPR Calcium 6); assay type: cell-based, rat; conditions: H9C2, t-BHP 150 μM
Experimental: To examine the maintenance effect on calcium level in heart cells, H9C2 cells were divided into a 96-well plate at 1.5×10^4 cells/well and cultured for 24 hours. To measure intracellular calcium level, a FLIPR Calcium 6 assay kit (Molecular devices; #R8190) was used. Following the experimental method provided by the manufacturer, cells were treated with probenecid and calcium-sensitive dye for 1.75 hours, and then the cells were treated with the compound of Example 2 for 0.25 hours (the final concentration of the compound was 0.02 or 0.01 μM). And the cells were treated with t-BHP to a final concentration of 150 μM, then intracellular calcium level was measured every 30 seconds in real time.
FIG. 1 is a graph regarding the regulatory effect of the compound of Example 2 on calcium level under t-BHP treatment. The ΔF/F(Max−Min) value on the vertical axis is the difference between the maximum and minimum fluorescence intensity values of the calcium-sensitive dye after treatment with t-BHP (150 μM), and this value increases as intracellular calcium level increases.

[4] = ICR mouse, oral 10 mg/kg, 2 hr, 10 mg/kg

Compound: COCCOCc1cc(NC2CCCC2)c2[nH]c(-c3ccccc3)cc2c1 [Example 2, N-cyclopentyl-5-(2-methoxyethoxymethyl)-2-phenyl-1H-indol-7-amine]
- EC50 (H9C2 cells [1]): ≤ 0.3 µM
- AUClast, brain ([2]; ICR mouse, oral 10 mg/kg): 8319.0 ng·h/g
- drug concentration in brain [2, 4]: 682.8 ng/mL
- drug concentration in plasma [2, 4]: 398.2 ng/mL
- AUC(0-inf) ([2]; ICR mouse, oral 10 mg/kg, plasma, read-out: area under the plasma concentration v. time curve (AUCinf)): 5420 ng·h/mL
- concentration at 2 h ([2]; ICR, mouse, brain, po, 10 mg/kg, 2 hr, read-out: drug concentration in brain): 683 ng/mL
- concentration at 24 h ([2]; ICR, mouse, brain, po, 10 mg/kg, 24 hr, read-out: drug concentration in brain): 11.4 ng/mL
- concentration at 0.5 h ([2]; ICR, mouse, plasma, po, 10 mg/kg, 0.5 hr): 334 ng/mL
- concentration at 1 h ([2]; ICR, mouse, plasma, po, 10 mg/kg, 1 hr): 337 ng/mL
- concentration at 2 h ([2]; ICR, mouse, plasma, po, 10 mg/kg, 2 hr, read-out: drug concentration in plasma): 398 ng/mL
- concentration at 4 h ([2]; ICR, mouse, plasma, po, 10 mg/kg, 4 hr): 672 ng/mL
- concentration at 8 h ([2]; ICR, mouse, plasma, po, 10 mg/kg, 8 hr): 232 ng/mL
- concentration at 24 h ([2]; ICR, mouse, plasma, po, 10 mg/kg, 24 hr, read-out: drug concentration in plasma): 5.6 ng/mL
- AUC(0-t) ([2]; ICR, mouse, plasma, po, 10 mg/kg, plasma, read-out: area under the plasma concentration v. time curve (AUClast)): 5400 ng·h/mL
- AUC(0-t) ([2]; ICR, mouse, plasma, po, 10 mg/kg, read-out: AUClast, plasma): 5400 ng·h/mL
- Kp at 2 h ([2]; brain/plasma, ICR mouse, oral 10 mg/kg, 2 hr, read-out: brain-plasma drug concentration ratio (B/P ratio)): 1.71
- Kp at 24 h ([2]; brain/plasma, ICR mouse, oral 10 mg/kg, 24 hr, read-out: brain-plasma drug concentration ratio (B/P ratio)): 2.04
- Kp ([2]; brain/plasma, ICR mouse, oral 10 mg/kg, read-out: B/P ratio of AUClast): 1.74
- intracellular calcium level, ΔF/F(Max−Min) (H9C2 cells [3]; compound 0.01 μM): significantly decreased
- intracellular calcium level, ΔF/F(Max−Min) (H9C2 cells [3]; compound 0.02 μM): within normal range
